Reference: US4497803A, “Inclusion compound of lankacidin-group antibiotic and use thereof” (priority 1982, dated 1985)
Values after ≈ are worked out from the molar mass of the structure shown. Where two headings read alike, the source gives them in different places.

Key:
[1] = tested on: St. aureus 209P; assay: Stability of inclusion compound of lankacidin-group (24° C., for 6 days): antibacterial activity by paper disk assay; assay type: cell-based; conditions: methanol, 1000 μg/ml
Method: The inclusion compound of the present invention is stable in an aqueous solution, although it splits into lankacidin-group moiety and cyclodextrins moiety, when it is in the form of solution or powder, by contacting it with organic solvents (e.g., ethyl acetate, methyl isobutyl ketone) or various carriers (e.g., silica gel, high-porous resins). […] In comparing the antibacterial activity, concentrations of the inclusion compound are calculated in terms of lankacidin-group compound from which the inclusion compound is prepared.
Stability of inclusion compound of lankacidin-group
*1 Paper disk assay using Trypticase soy agar (Baltimore Biologicals Ltd.
U.S.A.) as test culture media.
*2 1000 μg/ml, Lankacidingroup is stable in methanol.
*3 Aqueous solution of the inclusion compound with cyclodextrin (1000
μg/ml calculated in terms of lankacidingroup)

[2] = Solubility of inclusion compound in water; assay type: physicochemical
Method: The lankacidin-group is added to each of solutions containing various amounts of cyclodextrin. The minimum concentration of cyclodextrin which dissolves the maximum amount of the lankacidin-group compound and practical concentrations thereof are determined on the basis of amounts of the lankacidin-group compound dissolved in the cyclodextrin solutions. Then, the molar ratio of cyclodextrin to lankacidin-group compound is calculated by the following equation:
Molar ratio=[Molarity of cyclodextrin]:[(Saturation molarity of lankacidin-group compound in a certain concentration of cyclodextrin-solution)-(saturation molarity of lankacidin-group compound in an aqueous solution)].
Moreover, a large amount of the present inclusion compound is dissolved in water and it is kept stably therein. Solubility of the inclusion compound in water is greater than that of landacidin-group compounds in water, when the amount of the inclusion compound dissolved is calculated in terms of lankacidin-group compound, and than saturation concentration of cyclodextrin in water so far as cyclodextrin contained in the inclusion compound is concerned (Table 2).
(1) Solubility of lankacidingroup in water.
(2) Solubility of lankacidingroup in M/100 cyclodextrin solution.
(3) Concentration of cyclodextrin of (2).
(4) Solubility (maximum) of the present inclusion compound (calculated in
terms of lankacidingroup contained) in water.
(5) Concentration of cyclodextrin contained in the inclusion compound of […]

[3] = Solubility in β-CD solution, shaken 16 hours (Example 3); assay type: physicochemical
Method: Powdery lankacidin C was added to an aqueous solution of cyclodextrin (hereinafter referred to as "CD") to have 4 mg/ml of the lankacidin C contained. After the mixture was stirred with a mixer, it was shaken at 5° C. for 2 hours, and passed through filter paper. The absorbancy of the filtrate was measured at 227-229 nm to determine concentration of the lankacidin C.
The solubilities of lankacidin A, lankacidin C and lankacidinol in a β-CD solution were measured in the same manner as that of Example 1 except that the shaking was continued for 16 hours.

[4] = Stability of lankacidin A and C in methanolic aqueous solutions, 40° C., HPLC (Example 7); assay type: physicochemical; conditions: for Residual rate / remaining at 4 h / remaining at 6 h: 10 μg/ml, 40° C.; for Residual rate: 0 hr; for remaining at 4 h / remaining at 6 h: read-out: Residual rate
Method: 5 ml each of a methanolic solution containing lankacidin A or C in a concentration of 100 μg per ml was added to 45 ml each of pH 4.5 and pH 7.0 buffer solutions and a buffer solution containing β-cyclodextrin.
Each mixture was placed in a glass vessel, and then sealed. While the mixtures were kept in the vessel at 40° C., 5 ml each was taken out from time to time and extracted with ethyl acetate. The organic layers were dried over anhydrous sodium sulfate and the concentrations of the lankacidin A or C was measured with high-performance liquid chromatography (HPLC).
Apparatus: Water Associates ALC/GPC 240 (Waters Associates Inc., U.S.A.)
Column: μPoracil 30 cm×3.9 mm.phi.
Eluent: n-Hexane: isopropyl alcohol: acetic acid (75:25:0.2).

[5] = Solubility / suspension in physiological saline for injection (Test Example); assay type: physicochemical
Method: 10 mg (titer) calculated in terms of lankacidin A is soluble in 1 ml each of physiological saline solution. As a control, lankacidin A itself used in Example 5 was employed.
5.2 ml (titer: 10 mg/kg) of this suspension was administered to pig No. 1 and 4.9 ml (titer: 7 mg/kg) was administered to pig No. 2 by injecting it into root portion of ear once a day for two days.
Thus, administration was impossible.

[6] = methanolic buffer with β-cyclodextrin, pH 4.5, β-cyclodextrin 10 mg/ml
[7] = methanolic buffer with β-cyclodextrin, pH 7.0, β-cyclodextrin 10 mg/ml

With `CC(=O)OC1C=CC(C)=CCC(O)C=CC(C)=CC(NC(=O)C(C)=O)C2(C)C(=O)OC(C1)C(C)C2=O` (centres unmarked) [Lankacidin A, lankacidin A] the “Antibacterial activity, inhibition diameter” value ([1]; 0 day) was 26.75 mm, the “Antibacterial activity, inhibition diameter” value ([1]; 3 days at 24° C.) was 27.0 mm and the “Antibacterial activity, inhibition diameter” value ([1]; 6 days at 24° C.) was 23.25 mm. The solubility ([2]; m/100 cyclodextrin solution, M/100 cyclodextrin, (3) cyclodextrin 11.3 mg/ml, read-out: (2) Solubility of lankacidin-group in M/100 cyclodextrin solution) was 2690 µg/mL (≈ 5360 µM), the solubility ([2]; water, read-out: (1) Solubility of lankacidin-group in water) was 181 µg/mL (≈ 361 µM) and the solubility at 16 h ([3]; aqueous β-cd solution, β-CD 2 × 10^-3 Mol/l) was 632 µg/mL (≈ 1260 µM). The solubility at 16 h ([3]; aqueous β-cd solution, β-CD 2 × 10^-4 Mol/l) was 201 µg/mL (≈ 401 µM), the solubility at 16 h ([3]; aqueous β-cd solution, β-CD 5 × 10^-3 Mol/l) was 1370 µg/mL (≈ 2730 µM) and the solubility at 16 h ([3]; aqueous β-cd solution, β-CD 5 × 10^-4 Mol/l) was 265 µg/mL (≈ 528 µM). For the same molecule, the solubility at 16 h ([3]; aqueous β-cd solution, β-CD 10^-2 Mol/l) was 2690 µg/mL (≈ 5360 µM), the solubility at 16 h ([3]; aqueous β-cd solution, β-CD 10^-3 Mol/l) was 400 µg/mL (≈ 797 µM) and the solubility at 16 h ([3]; aqueous β-cd solution, β-CD 10^-4 Mol/l) was 195 µg/mL (≈ 389 µM). The “Solubility in β-CD solution as function of β-CD concentration” value ([3]; from the vicinity of 10^-3 Mol/l of β-CD) was “increase in proportion to the concentration of β-CD”, the solubility at 16 h ([3]; water, β-CD 0 Mol/l) was 181 µg/mL (≈ 361 µM) and the Residual rate ([4]; pH 4.5, no β-cyclodextrin) was 100%. The Residual rate ([4]; pH 4.5, β-cyclodextrin 10 mg/ml) was 100%, the Residual rate ([4]; pH 7.0, no β-cyclodextrin) was 100% and the Residual rate ([4]; pH 7.0, β-cyclodextrin 10 mg/ml) was 100%. The “Effect of β-cyclodextrin on stability in methanolic aqueous solutions” value ([4]; 1000 times β-CD by weight added) was “increased stabilities”, the remaining at 4 h ([4]; methanolic aqueous buffer, pH 4.5, no β-cyclodextrin) was 34.5% and the remaining at 4 h ([4]; methanolic aqueous buffer, pH 7.0, no β-cyclodextrin) was 17.4%. The remaining at 4 h [4, 6] was 91.9%, the remaining at 6 h [4, 6] was 85.7% and the remaining at 4 h [4, 7] was 58.3%. For the same molecule, the remaining at 6 h [4, 7] was 48.1% and the “Preparation of injection/suspension in sterilized physiological saline solution” value [5] was “suspension could not be obtained due to separation of the drug”.
